From patent publication US20150051246A1 (priority 2013, published 2015) come the findings set out here.

In data set [1] the test system is xylazine/ketamine induced α2-adrenergic receptor-mediated anesthesia. The note with it: in vivo, 3 mg/kg. The source says:
Since emesis is a typical side-effect of PDE4 inhibitors the emetic potential of roflumilast and rolipram was investigated in parallel using the xylazine/ketamine induced α2-adrenergic receptor-mediated anesthesia test. The results confirmed that the two phosphodiesterase 4 inhibitors have different effects on emesis.

Data set [2] relates to healthy adults. The data set is described as follows: EEG Event Related Potentials (P300, N400, P600) during VLT in healthy adults. It is filed as in vivo, human. The note with it: for ERP P600 amplitude (in words): 100 mcg, during VLT. As to the method: An electroencephalogram (EEG) cap was used to place a set of 32 EEG electrodes according to the international 10-20 system on the subjects. Event Related Potentials (ERPs) were extracted by averaging the responses within an epoch of 100 ms before and 1000 ms after stimulus onset covering P300, N400, and P600. Separate averages were made for correct and incorrect responses within a task and for different trial types. EEG measurements were done simultaneously with VLT testing. ERPs were calculated from the words that were called during immediate recall (encoding), and from the words that were recognized and from those that were not during the recognition condition at 45 minutes. The ERP components of P300, N400, and P600 were compared to examine whether the initial stimulus processing during the learning trials differs from word to word. Finally, ERPs to the old and new items during the recognition task were measured.
Statistical Data Analyses Human data was analyzed using IBM SPSS Statistics version 20. General Linear Models for repeated measures were applied with the placebo condition included as contrast. Statistical outcomes for Tests of Within-Subjects Effects and Tests of Within-Subjects Contrasts were regarded for immediate and delayed free recall scores and for the summed immediate recall score (i.e. immediate 1+immediate 2+immediate 3). The factor Treatment (4 levels; placebo, roflumilast 100 mcg, roflumilast 300 mcg and roflumilast 1000 mcg) was included as a within subjects factor. For the analysis of the EEG data, the factor Channel (5 levels; Fz, FCz, Cz, CPz, and Pz) was included as a second within subjects factor. Peak and latency values of three memory related ERP's were analysed; i.e. P300, N400 and P600. In case of significant findings (p<0.05) post-hoc t-tests were performed to reveal which of the five midline electrodes contributed to the effect

Data set [3] has as its system 60 to 80 years old subjects (Impaired Elderly and Healthy Elderly). The data set is described as follows: Verbal Learning Task (VLT) in 60 to 80 years old subjects, interim analysis. It counts as in vivo, human. As to the method:
The study is conducted according to a double-blind, placebo-controlled, four-period cross-over design. Forty healthy subjects, both male and female within an age range of 60 to 80 years are planned to be included in the study in two groups: 1) 20 subjects with a memory performance between 1-2 Standard Deviation below the average for their age, gender, and educated level (Impaired Elderly) and 2) 20 subjects with age (±3 years), gender, and educational level matched (in order to speed up the study matching was stopped after the interim analysis) with an average memory performance between 0.5 Standard Deviation below and 0.5 Standard Deviation above from normative values (Healthy Elderly). Classification in terms of impaired or healthy elderly will be determined by a one-off testing of memory performance using the Rey Verbal Learning Task (Rey A; L'examen psychologique dans les cas d'encephalopathy traumatique 1958 Paris; Presses Universitaire de France; or Van der Elst et al; J Int Neuropsychol Soc 2005, 11 (3), pp 290-302) according to fully standardized procedures as applied in The Maastricht Aging Study (Jolles et al; Maastricht Aging Study; determinants of cognitive aging; Maastricht, The Netherlands, Neuropsych Publishers 1995). Normative data for each individual subject will be derived also from the Maastricht Aging Study using the regression formula as described by Van der Elst et al (Van der Elst et al; J Int Neuropsychol Soc 2005, 11 (3), pp 290-302).
All subjects within their corresponding groups (either Healthy Elderly n=20 or Impaired Elderly n=20) will be randomized in a double blind fashion to 1 of 4 treatment sequences, each sequence consisting of the following periods: A) Placebo+placebo; B) Roflumilast 100 mcg+placebo; C) Roflumilast […]+placebo and D) Roflumilast 1000 mcg (500+500 mcg) according to a computer-generated allocation schedule in a cross-over design. Between each of the four treatment sequences there will be a 12 days washout period.
Verbal learning task (VLT) The Rey VLT as modified by Riedel and colleagues (Riedel, Klaasen et al, Psychopharmacology (Berlin) 1999 Vol 141(4) pp 362-369) is used. This modified VLT maximizes the possibility of measuring enhancement rather than only impairment, by means of prolonging the list. The test consists of a list of 30 monosyllabic words (18 nouns and 12 adjectives). The words are shown on a computer screen for 1 second. Three trials with the same item sequence are presented. Each trial ends with a free recall of the words (immediate recall). Forty-five minutes after the first exposure, the subject is asked to recall as many words as possible (delayed recall). […] The words are shown on a computer screen for 2 seconds and subjects are asked to rate whether they were presented in the learning trial by a “yes/no” response. The inter-word interval is 2 seconds. 24 Hours after the immediate recall, subjects will return to the lab for a second delayed recall and recognition. […] EEG will be recorded during the immediate recall and the first recognition test on the test day. […]
An interim analysis has been performed based on the data of 9 subjects of the Impaired Elderly group and 4 subjects of the Healthy Elderly group. For this purpose, cognitive battery test scores (VLT, SMT, Stroop task and BL-VAS) and concentrations of roflumilast and roflumilast-N-oxide in plasma have been analysed and summarized by dose over each scheduled sampling time using descriptive statistics. […]

For data set [4], the system named is 60 to 80 years old subjects. Kind of data set: Bond-Lader Visual Analogue Scales (BL-VAS) in elderly subjects. It is filed as in vivo, human. The note with it: 45 min after the low dose. The source says:
Bond-Lader Visual Analogue Scales (BL-VAS): The BL-VAS (Bond A and Lader M, 1974; Br J Med Psycho) Vol 47, pp. 211-218) will be used in order to assess alertness, calmness, and contentedness. BL-VAS consists of 16 100 mm visual analogue scales anchored by antonyms (e.g. Alert-Drowsy, Lethargic-Energetic; etc) and be applied on testing Day 1 and 2 of each treatment period.
An interim analysis has been performed based on the data of 9 subjects of the Impaired Elderly group and 4 subjects of the Healthy Elderly group. For this purpose, cognitive battery test scores (VLT, SMT, Stroop task and BL-VAS) and concentrations of roflumilast and roflumilast-N-oxide in plasma have been analysed and summarized by dose over each scheduled sampling time using descriptive statistics.

For the compound `O=C(Nc1c(Cl)cncc1Cl)c1ccc(OC(F)F)c(OCC2CC2)c1` [roflumilast, N-(3,5-dichloropyridin-4-yl)-3-cyclopropylmethoxy-4-difluoromethoxybenzamide], the emetic potential entry in data set [1] was “tendency towards emetic potential”. The “ERP P600 amplitude (in words)” value is “strongest increase of amplitude” in data set [2] and “increased amplitude” in data set [2] (listed as Roflumilast). For the same compound, the “ERP P600 (in words)” value in data set [2] (300 mcg and 1000 mcg, FIG. 3) is recorded as “some effect”. Further, the “increase in number of correct words, 45 min delayed recall, compared to placebo” value in data set [3] (100 mcg) is given as 1.7 words; in data set [3] (1000 mcg), 1.6 words. The compound also yielded a placebo-corrected fold-improvement in data set [3] (100 mcg, 3rd trial, interim data elderly study) of 1.16. The “increase in number of correct words immediately recalled, compared to placebo” value in data set [3] (100 mcg, after 3rd trial) stood at 1.5 words. In addition, the “number of words on the 3rd trial” value in data set [3] (100 mcg, elderly subjects) was 10.28 words. Moreover, in data set [4], the “(subjective) alertness in comparison with placebo, BL-VAS scores” value is “significantly higher (subjective) alertness”.
